Results reported in US12479791B2, “Cationic lipid” (Takeda Pharmaceutical Company Limited, priority 2018, dated 2025).

Legend:
[1] = Analysis of luciferase mRNA-encapsulated lipid nanoparticle (Production Example 2); assay type: physicochemical; details: for Rate of encapsulation / Average particle size: luciferase mRNA lipid nanoparticle; for mRNA concentration: luciferase mRNA lipid nanoparticle dispersion after dialysis and filtration; for Average particle size: cationic lipid:DPPC:cholesterol:GS-020=60:10.6:28:1.4
From the text: (§1) The particle size of the lipid particle (in the composition) can be measured by a known approach. For example, the particle size can be calculated as a Z-average particle size by the cumulant analysis of an autocorrelation function using a particle size measurement apparatus Zetasizer Nano ZS (Malvern Instruments) based on a dynamic light scattering measurement technique. The particle size (average particle size) of the lipid particle (in the composition) is, for example, 10 to 200 nm, preferably 60 to 170 nm.
(§2) The concentration and rate of encapsulation of the nucleic acid (e.g., siRNA or mRNA) in the composition of the present invention can be measured by a known approach. For example, the nucleic acid is fluorescently labeled using Quant-iT™ RiboGreen® (Invitrogen Corp.), and the fluorescence intensity can be measured to determine the concentration and the rate of encapsulation. The concentration of the nucleic acid in the composition can be calculated using a calibration curve prepared from aqueous nucleic acid solutions having known concentrations. The rate of encapsulation can be calculated on the basis of the difference in fluorescence intensity between the presence and absence of addition of Triton-X 100 (surfactant for disrupting the lipid particle). The concentration of the nucleic acid in the composition refers to the total concentration of a nucleic acid encapsulated in the lipid particle and an unencapsulated nucleic acid. The rate of encapsulation refers to the ratio of the nucleic acid encapsulated in the lipid particle to all nucleic acids in the composition.
A lipid mixture (cationic lipid:DPPC:cholesterol:GS-020=60:10.6:28:1.4, molar ratio) was dissolved in 90% of EtOH and 10% of water to obtain an 8.5 mg/ml lipid solution. Luciferase mRNA (TriLink BioTechnologies, Inc.) was dissolved in a 10 mM 2-morpholinoethanesulfonic acid (MES) buffer solution (pH 4.0) to obtain a 0.22 mg/ml nucleic acid solution. The obtained lipid solution and nucleic acid solution were mixed at a flow rate ratio of 3 ml/min:6 ml/min at room temperature using NanoAssemblr apparatus (Precision NanoSystems Inc.) to obtain a dispersion containing a composition. The obtained dispersion was dialyzed against water at room temperature for 1 hour and against PBS at 4° C. for 48 hours using Slyde-A-Lyzer (molecular weight cutoff: 20 K, Thermo Fischer Scientific Inc.). Subsequently, the dialysate was filtered through a 0.2 μm syringe filter (Iwaki) and preserved at 4° C.

[2] = test system: human colorectal cancer-derived cell line HCT116; assay: Transfection of cultured cell with mRNA (luciferase luminescence); assay type: cell-based; details: 10 ng luciferase mRNA, 24 hours
Description: A human colorectal cancer-derived cell line HCT116 was cultured at a cell density of 6000 cells/well in a 96-well plate. 24 hours later, 10 μl of the lipid particle containing 10 ng of luciferase mRNA was added to the medium. 24 hours after the addition of mRNA, a reagent of Picagene LT2.0 kit (Toyobo Co., Ltd.) was added to the culture plate of HCT116. The luminescence (count per sec (cps)) of luciferase was measured using a luminescence plate reader EnVision (PerkinElmer, Inc.).

[3] = Analysis of Col1a1 siRNA + FVII siRNA-encapsulated lipid nanoparticle (Production Example 3); assay type: physicochemical; details: for Rate of encapsulation / Particle size: Col1a1 siRNA + FVII siRNA lipid nanoparticle; for Particle size: cationic lipid:DPPC:cholesterol:GS-020=60:10.6:28:1.4; for Col1a1 siRNA + FVII siRNA concentration: lipid nanoparticle dispersion after dialysis and filtration
From the text: as §1, §2
A lipid mixture (cationic lipid:DPPC:cholesterol:GS-020=60:10.6:28:1.4, molar ratio) was dissolved in 90% of EtOH and 10% of a 25 mM acetate buffer solution (pH 4.0) to obtain a 7.4 mg/ml lipid solution. siRNA against collagen 1a1 (Col1a1) and siRNA against factor VII (FVII) were dissolved in equal weights in a 25 mM acetate buffer solution (pH 4.0) to obtain a 0.15 mg/ml nucleic acid solution. The sequences of Col1a1 siRNA and FVII siRNA were quoted from Hepatology, […], No. 4, 2015, and Silence, Vol. 1, No. 16, 2010, respectively. The obtained lipid solution and nucleic acid solution were mixed at a flow rate ratio of 1 ml/min:5 ml/min using a microfluidic mixing apparatus NanoAssemblr (Precision NanoSystems Inc.) to obtain a dispersion containing a composition. The obtained dispersion was dialyzed against water at room temperature for 1 hour and against PBS at room temperature for 18 hours using Slyde-A-Lyzer (molecular weight cutoff: 20 K, Thermo Fischer Scientific Inc.). Subsequently, the dialysate was filtered through a 0.2 μm syringe filter (Iwaki) and preserved at 4° C. The siRNA-encapsulated lipid nanoparticle was very favorably formed using the compound of the present invention.

Col1a1 gene = assay: Hepatic collagen 1a1 gene knockdown in CCl4 hepatic fibrosis mouse model; assay type: in vivo; details: male Balb/c mouse, Col1a1 siRNA + FVII siRNA 0.1 + 0.1 mg/kg intravenous, liver 4 days after administration, qPCR normalized with GAPDH, vs siRNA non-administration group
Description: (§3) The Col1a1 siRNA-encapsulated lipid nanoparticle was administered at 0.1 mg/kg into the orbital plexus of the vein of each 8-week-old male Balb/c mouse. 3 hours later, CCl4 mixed with corn oil was orally administered at a dose of 0.1 mL/kg (10 mL/kg) by forced single-dose administration (n=6 in each group). 4 days after the administration of the siRNA-encapsulated lipid nanoparticle, the liver was collected from the mouse euthanized under anesthesia, followed by gene expression analysis by quantitative PCR. The Col1a1 gene expression level and the FVII gene expression level were normalized with the expression level of GAPDH. The amount of decrease in Col1a1 gene expression as compared with a siRNA non-administration group was regarded as the rate of knockdown. In mice intravenously given the siRNA-encapsulated lipid nanoparticle formed using the compound of the present invention, the knockdown of the activated stellate cell marker gene Col1a1 gene was strongly observed, as compared with the rate of knockdown of the hepatic parenchymal cell marker gene FVII.

FVII gene = assay: Hepatic FVII gene knockdown in CCl4 hepatic fibrosis mouse model; assay type: in vivo; details: male Balb/c mouse, Col1a1 siRNA + FVII siRNA 0.1 + 0.1 mg/kg intravenous, liver 4 days after administration, qPCR normalized with GAPDH
Description: as §3

| Rate of encapsulation [1] [%] | mRNA concentration [1] [µg/mL] | Average particle size [1] [nm] | SMILES | Average luminescence (cps) of 3 wells ([2]; Table 10 (PBS control 293)) [cps] | Rate of encapsulation [3] [%] | Particle size [3] [nm] | Col1a1 siRNA + FVII siRNA concentration [3] [µg/mL] | Rate of Col1a1 knockdown (Col1a1 gene) [%] | Rate of FVII knockdown (FVII gene) [%] | Average luminescence (cps) of 3 wells ([2]; Table 6 (PBS control 1040)) [cps] | Average luminescence (cps) of 3 wells ([2]; Table 7 (PBS control 413)) [cps] | Average luminescence (cps) of 3 wells ([2]; Table 8 (PBS control 1293)) [cps] | Average luminescence (cps) of 3 wells ([2]; Table 9 (PBS control 80)) [cps] |
| --- | --- | --- | --- | --- | --- | --- | --- | --- | --- | --- | --- | --- | --- |
| 93 | 160 | 134 | CCCCCC(=O)OCC(COC(=O)CCCCC)(COC(=O)CCCCN(C)C)COC(=O)CCC(CCCCC)C(CCCCC)CCCCC (stereo not shown) [Example 12, 3-((5-(Dimethylamino)pentanoyl)oxy)-2,2-bis((hexanoyloxy)methyl)propyl 4,5-dipentyldecanoate] | – | – | – | – | – | – | – | – | – | 62587 |
| 99 | 127 | 164 | CCCCCC(=O)OCC(COC(=O)CCCCC)(COC(=O)CCCCN(C)C)COC(=O)CCC(CCCC)C(CCCC)CCCC (stereo not shown) [Example 15, 3-((5-(Dimethylamino)pentanoyl)oxy)-2,2-bis((hexanoyloxy)methyl)propyl 4,5-dibutylnonanoate] | 3293 | – | – | – | – | – | – | – | – | – |
| 87 | 116 | 152 | CCCCCCCC(=O)OCC(COC(=O)CCCCCCC)(COC(=O)CCCCN(C)C)COC(=O)CCC(CCC)C(CCC)CCC (stereo not shown) [Example 17, 3-((5-(Dimethylamino)pentanoyl)oxy)-2,2-bis((octanoyloxy)methyl)propyl 4,5-dipropyloctanoate] | 7987 | – | – | – | – | – | – | – | – | – |
| 99 | 103 | 77 | CCCCCCCC(=O)OCC(COC(=O)CCCCCCC)(COC(=O)CCC(CCCC)C(CCCC)CCCC)COC(=O)NCCCCN(C)C (stereo not shown) [Example 18, 3-(((4-(Dimethylamino)butyl)carbamoyl)oxy)-2,2-bis((octanoyloxy)methyl)propyl 4,5-dibutylnonanoate] | 12813 | – | – | – | – | – | – | – | – | – |

More lines, now with the values behind:

| SMILES | Rate of encapsulation [1] [%] | mRNA concentration [1] [µg/mL] | Average particle size [1] [nm] | Average luminescence (cps) of 3 wells ([2]; Table 10 (PBS control 293)) [cps] | Rate of encapsulation [3] [%] | Particle size [3] [nm] | Col1a1 siRNA + FVII siRNA concentration [3] [µg/mL] | Rate of Col1a1 knockdown (Col1a1 gene) [%] | Rate of FVII knockdown (FVII gene) [%] | Average luminescence (cps) of 3 wells ([2]; Table 6 (PBS control 1040)) [cps] | Average luminescence (cps) of 3 wells ([2]; Table 7 (PBS control 413)) [cps] | Average luminescence (cps) of 3 wells ([2]; Table 8 (PBS control 1293)) [cps] | Average luminescence (cps) of 3 wells ([2]; Table 9 (PBS control 80)) [cps] |
| --- | --- | --- | --- | --- | --- | --- | --- | --- | --- | --- | --- | --- | --- |
| CCCCCCCC(=O)OCC(COC(=O)CCCCCCC)(COC(=O)CCCCN(C)C)COC(=O)CCC(CCCCCCC)CCCCCCC [Example 1, 3-((5-(Dimethylamino)pentanoyl)oxy)-2,2-bis((octanoyloxy)methyl)propyl 4-heptylundecanoate] | 96 | 145 | 112 | 110733 | 98 | 111 | 128 | 86 | 0 | – | – | – | – |
| CCCCCCCC(=O)OCC(COC(=O)CCCCCN(C)C)(COC(=O)C(CCCCCC)CCCCCC)COC(=O)C(CCCCCC)CCCCCC [Example 8] | 91 | 97 | 103 | – | – | – | – | – | – | 381693 | – | – | – |
| CCCCCCCC(=O)OCC(COC(=O)CCCCN(C)C)(COC(=O)CC(CCCCC)CCCCC)COC(=O)CC(CCCCC)CCCCC [Example 9] | 94 | 77 | 96 | – | – | – | – | – | – | – | 63493 | – | – |
| CCCCCCCC(=O)OCC(COC(=O)CCCCCCC)(COC(=O)CCCCN(C)C)COC(=O)CCC(CCCC)C(CCCC)CCCC (stereo not shown) [Example 10, 3-((5-(Dimethylamino)pentanoyl)oxy)-2,2-bis((octanoyloxy)methyl)propyl 4,5-dibutylnonanoate] | 96 | 83 | 123 | 112893 | 97 | 101 | 137 | 77 | 0 | – | – | 500747 | 176813 |
| CCCCCCCC(=O)OCC(COC(=O)CCCCCCC)(COC(=O)CCCCCN(C)C)COC(=O)CCC(CCCC)C(CCCC)CCCC (stereo not shown) [Example 11, 3-((6-(Dimethylamino)hexanoyl)oxy)-2,2-bis((octanoyloxy)methyl)propyl 4,5-dibutylnonanoate] | 93 | 78 | 122 | – | 97 | 91 | 320 | 77 | 21 | – | – | 572560 | – |
| CCCCCCCC(=O)OCC(COC(=O)CCCCCCC)(COC(=O)CCCCN(C)C)COC(=O)CCC(CCCCC)C(CCCCC)CCCCC (stereo not shown) [Example 13, 3-((5-(Dimethylamino)pentanoyl)oxy)-2,2-bis((octanoyloxy)methyl)propyl 4,5-dipentyldecanoate] | 99 | 155 | 119 | – | 97 | 103 | 122 | 86 | 15 | – | – | – | 269467 |
| CCCCCCCC(=O)OCC(COC(=O)CCCCCCC)(COC(=O)CCCN(C)C)COC(=O)CCC(CCCC)C(CCCC)CCCC (stereo not shown) [Example 19, 3-((4-(Dimethylamino)butanoyl)oxy)-2,2-bis((octanoyloxy)methyl)propyl 4,5-dibutylnonanoate] | – | – | – | – | 96 | 89 | 112 | 71 | 31 | – | – | – | – |
